24 compounds from PubChem BioAssay AID328 (DTP/NCI, 2004) can be followed below.

For the assay, the system named is BDF1 mice, P388 leukemia ip, median survival T/C. Nature of the assay: NCI In Vivo Anticancer Drug Screen. Data for tumor model P388 Leukemia (intraperitoneal) in B6D2F1 (BDF1) mice. As to conditions: endpoint: median survival time, higher = longer survival. The method in brief: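 Antitumour effect was judged in vivo: survival in drug-treated mice, normalised to that of vehicle-dosed controls, gives the reported T/C.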

Setting [1] is: dose: 50.0 mg/kg/injection, schedule: Q04DX003 (ip), vehicle: saline sonified.
Setting [2] is: dose: 100.0 mg/kg/injection, schedule: Q04DX003 (ip), vehicle: saline sonified.
The mark [3] stands for this setting: dose: 200.0 mg/kg/injection, schedule: Q04DX003 (ip), vehicle: saline sonified.
[4] abbreviates: dose: 100.0 mg/kg/injection, schedule: Q04DX003 (ip), vehicle: saline.
Setting [5] is: dose: 200.0 mg/kg/injection, schedule: Q04DX003 (ip), vehicle: saline.
Where [6] appears, read: dose: 50.0 mg/kg/injection, schedule: Q01DX009 (ip), vehicle: saline with Tween-80.
Setting [7] is: dose: 100.0 mg/kg/injection, schedule: Q01DX009 (ip), vehicle: saline with Tween-80.
Where [8] appears, read: dose: 200.0 mg/kg/injection, schedule: Q01DX009 (ip), vehicle: saline with Tween-80.
Where [9] appears, read: dose: 50.0 mg/kg/injection, schedule: Q04DX003 (ip), vehicle: saline with Tween-80.
The mark [10] stands for this setting: dose: 100.0 mg/kg/injection, schedule: Q04DX003 (ip), vehicle: saline with Tween-80.
[11] abbreviates: dose: 200.0 mg/kg/injection, schedule: Q04DX003 (ip), vehicle: saline with Tween-80.
Where [12] appears, read: dose: 400.0 mg/kg/injection, schedule: Q01DX009 (ip), vehicle: saline with Tween-80.
The mark [13] stands for this setting: dose: 50.0 mg/kg/injection, schedule: Q04DX003 (ip), vehicle: water.
Where [14] appears, read: dose: 100.0 mg/kg/injection, schedule: Q04DX003 (ip), vehicle: water.
Where [15] appears, read: dose: 200.0 mg/kg/injection, schedule: Q04DX003 (ip), vehicle: water.

Molecules are shown by their SMILES. Values joined by “and” are separate entries in the source; they are usually repeats but may differ in a detail not shown here. Identical values can stand only once. Toxic doses and inconclusive results are not listed.

Regarding `O=c1oc2ccc(O)cc2c2ccccc12`, the T/C is, setting by setting: under setting [1], 95 % of control; under setting [2], 100 % of control; under setting [3], 104 % of control.

Turning to `COC(=O)CC1C(=O)C(C)(C(=O)OC)CCC1c1ccc(OC)cc1` (stereo not drawn), the T/C reads like this: under setting [4], 109 % of control; under setting [5], 109 % of control; (dose: 400.0 mg/kg/injection, schedule: Q04DX003 (ip), vehicle: saline) 104 % of control.

Consider `COc1cc(OC)c(NC(=S)Nc2cc(C)ccc2OC)cc1Cl`, for which the T/C is 97 % of control (dose: 12.5 mg/kg/injection, schedule: Q01DX009 (ip), vehicle: DMSO) and 93 % of control (dose: 25.0 mg/kg/injection, schedule: Q01DX009 (ip), vehicle: DMSO).

Regarding `CC[C@@]1(O)C(=O)OCc2c1cc1n(c2=O)Cc2cc3c(OC)cccc3nc2-1`, the T/C runs as follows: (dose: 0.5 mg/kg/injection, schedule: Q01DX009 (ip), vehicle: carboxymethylcellulose (CMC)) 182 % of control; (dose: 1.0 mg/kg/injection, schedule: Q01DX009 (ip), vehicle: carboxymethylcellulose (CMC)) 195 % of control.

In the case of `CN(C)P(=S)(N(C)C)N1CCC1`, the T/C reads like this: under setting [6], 96 % of control; under setting [7], 90 % of control; under setting [8], 109 % of control.

In the case of `O=C(NP(=O)(N1CC1)N1CC1)OCc1ccccc1`, the T/C is, setting by setting: (dose: 100.0 mg/kg/injection, schedule: Q01DX009 (ip), vehicle: alcohol) 100 % of control; (dose: 100.0 mg/kg/injection, schedule: Q04DX003 (ip), vehicle: alcohol) 95 % of control; (dose: 200.0 mg/kg/injection, schedule: Q01DX009 (ip), vehicle: alcohol) 100 % of control; (dose: 200.0 mg/kg/injection, schedule: Q04DX003 (ip), vehicle: alcohol) 110 % of control; (dose: 400.0 mg/kg/injection, schedule: Q01DX009 (ip), vehicle: alcohol) 86 % of control; (dose: 400.0 mg/kg/injection, schedule: Q04DX003 (ip), vehicle: alcohol) 100 % of control.

As for `COCc1cnc2nc(N)nc(N)c2n1`, the T/C (dose: 3.13 mg/kg/injection, schedule: Q01DX009 (ip), vehicle: other) was 116 % of control.

Take `CCCC(=O)C(CC)C(O)(C(F)(F)F)C(F)(F)F` (stereo not drawn): the T/C by setting is: under setting [9], 100 % of control; under setting [10], 104 % of control; under setting [11], 118 % of control.

Turning to `O=C(CCl)NCc1cnccn1`, the T/C (dose: 25.0 mg/kg/injection, schedule: Q01DX009 (ip), vehicle: saline) was 107 % of control; the T/C (dose: 50.0 mg/kg/injection, schedule: Q01DX009 (ip), vehicle: saline) is 102 % of control; the T/C (dose: 100.0 mg/kg/injection, schedule: Q01DX009 (ip), vehicle: saline) was 108 % of control; the T/C under setting [4] was 94 % of control; the T/C (dose: 200.0 mg/kg/injection, schedule: Q01DX009 (ip), vehicle: saline) was 102 % of control; the T/C under setting [5] is 117 % of control.

Consider `O=C(Nc1cccc(Br)c1)N1c2ccccc2SC12CCCC2`, for which the T/C is 89 % of control under setting [6], 97 % of control under setting [7] and 106 % of control under setting [8].

As to `CCOC(=S)SCC(=O)Nc1ccc(I)cc1`, the T/C runs as follows: (dose: 15.0 mg/kg/injection, schedule: Q01DX009 (ip), vehicle: saline with Tween-80) 93 % of control; (dose: 30.0 mg/kg/injection, schedule: Q01DX009 (ip), vehicle: saline with Tween-80) 95 % of control; (dose: 60.0 mg/kg/injection, schedule: Q01DX009 (ip), vehicle: saline with Tween-80) 98 % of control.

For the compound `CN(C)C(CC(=O)c1ccccc1)C(=O)O` (stereo not drawn), under setting [1], the T/C is 104 % of control.

For `N#CC(C#N)C1c2ccccc2C([N+](=O)[O-])c2ccccc21` (stereo not drawn), the T/C under setting [7] was 112 % of control, the T/C under setting [8] is 116 % of control and the T/C under setting [12] was 112 % of control.

For `O=C1NCC(COc2ccc(Cl)cc2)O1` (stereo not drawn), the T/C was 108 % of control (dose: 50.0 mg/kg/injection, schedule: Q01DX009 (ip), vehicle: Klucel (hydroxypropylcellulose) (HPC)); 105 % of control (dose: 100.0 mg/kg/injection, schedule: Q01DX009 (ip), vehicle: Klucel (hydroxypropylcellulose) (HPC)); 105 % of control (dose: 200.0 mg/kg/injection, schedule: Q01DX009 (ip), vehicle: Klucel (hydroxypropylcellulose) (HPC)).

In the case of `c1ccc(C23c4ccccc4C(=NC4CCCCC4)C2N3C2CCCCC2)cc1` (stereo not drawn), the T/C is, setting by setting: (dose: 100.0 mg/kg/injection, schedule: Q04DX003 (ip), vehicle: Klucel (hydroxypropylcellulose) (HPC)) 90 % of control; (dose: 200.0 mg/kg/injection, schedule: Q04DX003 (ip), vehicle: Klucel (hydroxypropylcellulose) (HPC)) 100 % of control.

As for `CCC(=O)OCc1ccc(Cl)cc1`, the T/C runs as follows: (dose: 75.0 mg/kg/injection, schedule: Q04DX003 (ip), vehicle: Klucel (hydroxypropylcellulose) (HPC)) 100 % of control; (dose: 150.0 mg/kg/injection, schedule: Q04DX003 (ip), vehicle: Klucel (hydroxypropylcellulose) (HPC)) 100 % of control; (dose: 300.0 mg/kg/injection, schedule: Q04DX003 (ip), vehicle: Klucel (hydroxypropylcellulose) (HPC)) 100 % of control.

As to `CC1CN1P(=S)(Oc1ccccc1)N1CC1C` (stereo not drawn), the T/C is, setting by setting: under setting [8], 150 % of control; (dose: 264.0 mg/kg/injection, schedule: Q01DX009 (ip), vehicle: saline with Tween-80) 122 % of control; (dose: 300.0 mg/kg/injection, schedule: Q01DX009 (ip), vehicle: saline with Tween-80) 155 % of control; under setting [12], 150 % of control.

`C#CCOCCBr`: the T/C (dose: 22.0 mg/kg/injection, schedule: Q01DX009 (ip), vehicle: saline) is 122 % of control.

With `COc1ccc(C=O)cc1OCc1ccccc1`, the T/C is 113 % of control (dose: 6.25 mg/kg/injection, schedule: Q01DX009 (ip), vehicle: water); 104 % of control (dose: 12.5 mg/kg/injection, schedule: Q01DX009 (ip), vehicle: water); 109 % of control (dose: 25.0 mg/kg/injection, schedule: Q01DX009 (ip), vehicle: water); 101 % of control and 116 % of control (dose: 50.0 mg/kg/injection, schedule: Q01DX009 (ip), vehicle: water); 104 % of control under setting [13]; 95 % of control and 97 % of control (dose: 100.0 mg/kg/injection, schedule: Q01DX009 (ip), vehicle: water). The T/C is 102 % of control and 117 % of control under setting [14]; 116 % of control (dose: 200.0 mg/kg/injection, schedule: Q01DX009 (ip), vehicle: water); 102 % of control and 114 % of control under setting [15]; 117 % of control (dose: 400.0 mg/kg/injection, schedule: Q04DX003 (ip), vehicle: water).

As to `Cc1ccc(C)c(C(=O)C2CC2)c1`, the T/C is 100 % of control under setting [9]; 100 % of control under setting [7]; 120 % of control under setting [10]; 103 % of control (dose: 150.0 mg/kg/injection, schedule: Q01DX009 (ip), vehicle: saline with Tween-80); 110 % of control under setting [8]; 100 % of control under setting [11].

Regarding `CCOc1ccc(NC(=O)OCCN2CCN(CCc3ccccc3)C(C)C2)cc1` (stereo not drawn), the T/C under setting [6] is 94 % of control and the T/C under setting [7] was 98 % of control.

Take `CCOC(=O)CNCc1ccc(Cl)c(Cl)c1`: the T/C was 111 % of control under setting [13], 113 % of control under setting [14] and 111 % of control under setting [15].

For `CNC(=O)OCc1c(-c2ccccc2)nc2sccn12`, the T/C is, setting by setting: (dose: 12.5 mg/kg/injection, schedule: Q01DX001 (ip), vehicle: Klucel (hydroxypropylcellulose) (HPC)) 109 % of control; (dose: 25.0 mg/kg/injection, schedule: Q01DX001 (ip), vehicle: Klucel (hydroxypropylcellulose) (HPC)) 113 % of control.

For `O=C1NC(=O)c2cc([N+](=O)[O-])cc3cccc1c23`, the T/C reads like this: under setting [2], 91 % of control; under setting [3], 95 % of control; (dose: 400.0 mg/kg/injection, schedule: Q04DX003 (ip), vehicle: saline sonified) 87 % of control.
